Experimental data reported in patent US10221198B2, “Preparation and medical use of triazenes” (Ecole Polytechnique Federale De Lausanne (EPFL), priority 2014, dated 2019).

What was measured:
Assay type in all cases: cell-based
[1] = tested on: human mammary epithelial cells (MCF-10A); assay: Cytotoxicity test (MTT assay) on MCF-10A cells; settings: 72 h exposure
Description: (§1) MDA-MB-231 breast adenocarcinoma cells (ATCC® HTB-26™), MCF-10a human mammary epithelial cells (ATCC® CRL-10317™) and HEK293 human embryonic kidney cells (ATCC® CRL-1573™) were obtained from ATCC (Middlesex, UK), the A2780 human ovarian carcinoma cell line was obtained from the European Collection of Cell Cultures (catalogue number 93112519, Salisbury, U.K.). All cell culture media were purchased from Life Technologies (Zug, Switzerland). A2780 cells were cultured in RPMI-1640 medium (Gibco, GlutaMax), while MDA-MB-231 and HEK293 cells were cultured in Dulbecco's Modified Eagle Medium (DMEM, Gibco, GlutaMax) supplemented with 10% fetal bovine serum (FBS, Sigma-Aldrich, Buchs, Switzerland) and 1% penicillin/streptomycin (Life Technologies, Zug, Switzerland). MCF-10A were cultured in DMEM/F12 medium containing 10% horse serum and 1% antibiotics, supplemented with 10 μg/mL insulin, 20 μg/mL hydrocortisone, 20 ng/mL epidermal growth factor and 100 ng/mL cholera toxin (all from Sigma Aldrich, Buchs, Switzerland). Cells were incubated in a CO2 incubator with 5% CO2 and 100% relative humidity at 37° C. MTT (MTT=3-(4,5-dimethyl-2-thiazolyl)-2,5-diphenyl-2H-tetrazolium bromide) was purchased from Calbiochem (Zug, Switzerland). Cell viability was determined by the MTT assay. The absorption was read using a SpectraMax M52 microplate reader (Molecular Devices, Sunnyvale, Calif., USA).
(§2) Cells were seeded in 96-well plates as monolayers with 100 μL of cell suspension (approximately 5000 cells) per well and preincubated for 24 h in medium supplemented with 10% FBS. With the exception of dacarbazine, all compounds were dissolved in DMSO. In the case of dacarbazine, an aqueous stock solution of the monocitrate was prepared in situ and immediately used (light sensitivity). The stock solutions were serially diluted in the culture medium to the appropriate concentration, to give a final DMSO concentration of no higher than 0.5%. 100 μL of the compound solution was added to each well, and the plates were incubated for 72 h. Subsequently, MTT (5 mg/mL solution) was added to the cells and the plates were incubated for a further 2 h. The culture medium was aspirated and the purple formazan crystals formed by the mitochondrial dehydrogenase activity of vital cells were dissolved in DMSO. The optical density, directly proportional to the number of surviving cells, was quantified at 590 nm using a multiwell plate reader, and the fraction of surviving cells was calculated from the absorbance of untreated control cells. Evaluation is based on means from at least two independent experiments, each comprising triplicates per concentration level.

[2] = tested on: non-cancer human embryonic kidney cells (HEK293); assay: Cytotoxicity test (MTT assay) on HEK293 cells; settings: 72 h exposure
Description: as §1, §2

[3] = tested on: human ovarian cancer cells (A2780); assay: Cytotoxicity test (MTT assay) on A2780 cells; settings: 72 h exposure
Description: as §1, §2

[4] = tested on: human invasive breast cancer cells (MDA-MB-231); assay: Cytotoxicity test (MTT assay) on MDA-MB-231 cells; settings: for IC50: MDA-MB-231, 72 h exposure, MTT assay, human invasive breast cancer cells; for SC, selectivity coefficient, IC50 MCF-10A/IC50 MDA-MB-231: ratio of 72 h IC50 values, MCF-10A over MDA-MB-231
Description: as §1, §2

Structure (SMILES) | IC50 [1] | IC50 [2] | IC50 [3] | IC50 [4] | SC, selectivity coefficient, IC50 MCF-10A/IC50 MDA-MB-231 [4]
CC(C)N(N=NC#Cc1ccccc1)C(C)C [Compound 1, 3,3-Diisopropyl-1-(phenylethynyl)triaz-1-ene] | 116 ± 2 µM | 44 ± 11 µM | 56 ± 4 µM | > 500 µM | 
CC(C)N(N=NC#CC(C)(C)C)C(C)C [Compound 2, 1-(3,3-Dimethylbut-1-ynyl)-3,3-diisopropyltriaz-1-ene] | 299 ± 43 µM | 125 ± 5 µM | 160 ± 40 µM | 176 ± 60 µM | 1.7
CC(C)N(C)N=NC#CC(C)(C)C [Compound 4, 1-(3,3-Dimethylbut-1-ynyl)-3-isopropyl-3-methyltriaz-1-ene] | 192 ± 12 µM | 29 ± 4 µM | 32 ± 4 µM | 70 ± 10 µM | 2.7
CN(C)N=NC#CC(C)(C)C [Compound 5, 1-(3,3-Dimethylbut-1-ynyl)-3,3-dimethyltriaz-1-ene] | 52 ± 11 µM | 19 ± 2 µM | 22 ± 3 µM | 38 ± 3 µM | 1.4
CCCCC#CN=NN(C(C)C)C(C)C [Compound 6, 1-(Hex-1-ynyl)-3,3-diisopropyltriaz-1-ene] | 254 ± 52 µM | 165 ± 65 µM | 143 ± 29 µM | 199 ± 21 µM | 1.2
COCC#CN=NN(C)C(C)C [Compound 9, 3-Isopropyl-1-(3-methoxyprop-1-ynyl)-3-methyltriaz-1-ene] | 208 ± 49 µM | 14 ± 1 µM | 20 ± 3 µM | 32 ± 4 µM | 6.5
CC(C)N(C)N=NC#CCN(C)C [Compound 10, 3-(3-Isopropyl-3-methyltriaz-1-enyl)-N,N-dimethylprop-2-yn-1-amine] | 86 ± 4 µM | 21 ± 5 µM | 34 ± 4 µM | 14 ± 2 µM | 6.1
COCC#CN=NN(C)C [Compound 14, 1-(3-Methoxyprop-1-ynyl)-3,3-dimethyltriaz-1-ene] | 177 ± 23 µM | 24 ± 4 µM | 43 ± 6 µM | 72 ± 9 µM | 2.5
CN(C)CC#CN=NN(C)C [Compound 15, 3-(3,3-Dimethyltriaz-1-enyl)-N,N-dimethylprop-2-yn-1-amine] | 113 ± 7 µM | 15 ± 4 µM | 47 ± 3 µM | 45 ± 15 µM | 2.4
